Tests used:
[1] = tested on: C2C12 cells; experiment: Real-time qRT-PCR analysis of C2C12 myoblasts (TGF-β1 stimulation, halofuginone treatment); assay type: cell-based, mouse; details: 24 hours of 5 ng/ml TGF-β1 stimulation, vs control group (FIG. 2a)
Procedure: (§1) Specifically, C2C12 cells (CRL-1772) were purchased from the American Type Culture Collection (ATCC) and maintained in DMEM medium (Welgene) containing 10% (v/v) fetal bovine serum (FBS; Gibco) and 1% penicillin-streptomycin (P/S; Gibco) at 37° C. under 5% CO2 conditions. The C2C12 cells were seeded in 6-well plates at a density of 3×10^5 cells per well and allowed to adhere for 24 hours. Subsequently, the medium was replaced with serum-free medium after 24 hours, followed by stimulation with 5 ng/ml rhTGF-β1 (recombinant human TGF-β1; R&D Systems). After stimulation, the cells were treated with various concentrations (0 [control], or 1, 2.5, 5 [low dose], 10 [high dose], 20, 50, 100 ng/ml) of halofuginone (Sigma) in serum-free medium for 24 hours.
Specifically, total RNA was isolated from C2C12 cells in Example 1, fibroblasts in Example 5, and the lumbar spinal cord of mice in Example 6 using the FavorPrep™ Tri-RNA Reagent (Favorgen). The lumbar spinal cord was isolated from the mouse in Example 6 and stored frozen at −80° C. until the experiment. The concentration of total RNA was measured at 260 nm absorbance using a spectrophotometer (NanoDrop Spectrophotometer ND-2000, Thermo Scientific). cDNA was synthesized from 1 μg of total RNA using the ReverTra Ace-α™ (Toyobo) according to the manufacturers protocol. Quantitative RT-PCR was performed using the SYBR Green ExcelTaq™ 2× Fast Q-PCR Master Mix (TQ1200, Smobio) on a thermocycler (CFX Connect Real-Time PCR Detection System, BIO-RAD) with the primers listed in Table 3 below. Fluorescence data were analyzed with Bio-Rad CFX Manager 3.1 software, and control versus relative mRNA expression was calculated by the 2AT) method. Experiments were performed four times on all samples. All primers were designed using Primer3 online software, and GAPDH was used as a control group.
(§2) Specifically, after treating C2C12 cells with TGF-β1 for 24 hours as in Example 1, real-time qRT-PCR was performed in the same manner as in Example 11 to confirm TGF-β1, 2 and 3, α-SMA and MyoD mRNA expression (FIG. 2a), and Western blot analysis was performed in the same manner as in Example 12 to confirm autocrine expression of TGF-β1 and MyoD protein and α-SMA (FIG. 2b).
Specifically, as in Example 1, C2C12 cells were stimulated with TGF-β1 for 24 hours, and then halofuginone was treated for 24 hours, and real-time qRT-PCR was performed in the same manner as in Example 11 to confirm TGF-β1, α-SMA, MyoD, and collagen I (Col-I) mRNA expression (FIG. 4a). In addition, Western blot analysis was performed in the same manner as in Example 12 to confirm TGF-β1, α-SMA, MyoD, and collagen I protein expression (FIG. 4b). In addition, immunocytochemical analysis was performed in the same manner as in Example 3 to confirm α-SMA and MyoD expression (FIG. 4c).

[2] = tested on: C2C12 cells; experiment: Western blot analysis of C2C12 myoblasts (TGF-β1 stimulation, halofuginone treatment); assay type: cell-based, mouse; details: 24 hours of 5 ng/ml TGF-β1 stimulation (FIG. 2b)
Procedure: as §1
Specifically, the lumbar spinal cord or knee joint of the mouse of Example 6 was separated and immediately frozen at −80° C. Each lumbar spinal cord or knee joint was then homogenized and chemically treated to obtain cells. The chemically treated cells, the C2C12 cells of Example 1 or the fibroblasts of Example 5 were dissolved in a RIPA buffer (Thermo, MA, USA) with a protease inhibitor and a phosphatase inhibitor (Roche, IN, USA) and incubated on ice for 30 minutes. After centrifugation of the lysate at 13,000 rpm at 4° C. for 20 min, insoluble substances were removed. Protein concentrations were measured by BCA analysis (Pierce Biotechnology). Equal volumes of cell lysate were loaded onto SDS-PAGE gels for electrophoresis, and transferred onto nitrocellulose membranes (Amersham Protran 0.2 um NC, Amersham Pharmacia Biotech, Piscataway, NJ, USA). The membranes were then blocked with 5% (w/v) skimmilk in 1×TBST for 1 h at room temperature. After blocking, anti-RB-actin antibody (1:5000; Santa Cruz, cat #sc47778), anti-Smad2 antibody (1:1000; Cell Signaling, cat #5339), anti-p-Smad2 antibody (1:1000; Cell Signaling, cat #3108), anti-TGF-β1 antibody (1:1000; Santa Cruz, cat #sc130348), anti-α-SMA antibody (1:10000; abcam cat #ab7817), anti-MyoD antibody (1:1000; cat #sc377460), anti-collagen|antibody (1:1000; abcam cat #ab21286), anti-cleaved caspase-3 antibody (1:1000; Cell Signaling, cat #9661), anti-bax antibody (1:500; Santa Cruz, cat #sc493), anti-bcl2 antibody (1:1000; Novus Biologics, cat #NB100-56098), anti-ChAT antibody (1:1000; Millipore, cat #AB144) were treated and incubated overnight at 4° C. Subsequently, membranes were washed several times with 1×TBST and incubated with horseradish peroxidase-conjugated secondary antibodies (anti-mouse, rabbit or goat, 1:5000; GE Healthcare) in blocking buffer for 1 h at room temperature (RT). The membranes were then washed, briefly incubated with the SuperSignal West Pico Plus Chemical Substructure (Pierce Biotechnology) according to the manufacturer's procedure, and quantified with an image analyzer (Amersham Pharmacia Biotech, Piscataway, NJ, USA). β-actin was used as an internal control group. The concentration measurement of protein intensity was quantified using Image J (National Institutes of Health).
as §2
Specifically, C2C12 cells were treated with halofuginone after TGF-β1 stimulation or no stimulation in the same manner as described in Example 2, and cell viability analysis was performed through CCK-8 analysis (FIGS. 3a and 3b), and Western blot analysis was performed in the same manner as described in Example 12 to confirm autocrine expression of p-Smad2, Smad2, TGF-β1, MyoD, collagen I protein and α-SMA (FIG. 3c). […]

Question: Which “mRNA expression of α-SMA” value [1] does the source give for “TGF-β1: recombinant human TGF-β1 (R&D Systems) used to stimulate C2C12 myoblasts” here?
Answer: significantly increased

Question: And the “mRNA level of MyoD” value [1]?
Answer: significantly decreased

Question: And the “mRNA level of TGF-β1” value [1]?
Answer: significantly increased

Question: And the “mRNA level of TGF-β2” value [1]?
Answer: significantly increased

Question: And the “mRNA level of TGF-β3” value [1]?
Answer: significantly increased

Question: What about the TGF-β1 protein expression [2] of the same substance?
Answer: significantly increased

Question: What about the “protein expression of MyoD” value [2] of the same substance?
Answer: significantly decreased

Question: What about the α-SMA protein expression [2] of the same substance?
Answer: significantly increased

— US20240390377A1, “COMPOSITION FOR THE PREVENTION OR TREATMENT OF NEURODEGENERATIVE OR MOTOR NEURON DISEASES COMPRISING HALOFUGINONE AS AN ACTIVE INGREDIENT” (CURAMYS CO., LTD., priority 2022, published 2024)
